Results reported in US6528095B1, “Anti-atherosclerotic and anti-thrombotic agent and the use thereof” (Potchefstroom University for Christian Higher Education, priority 2000, dated 2003).
Read-outs that look alike come from different tables or passages of the source.

Legend:
[1] = Supplementation in human males: haemorheological variables (haematocrit, haemoglobin, plasma viscosity); assay type: in vivo; details: for VISCOSITY: plasma
Procedure: (§1) The respective effects of pectin and an acetate when administered to the colon of a mammal were determined during a first experiment. The experiment was conducted in the following two phases: [drawing 1]
(§2) Twenty human males participated in the experimentation and these subjects were not on any medication for any chronic diseases at the time, and also had no history of cardiovascular disease. All the subjects were at the time following a relatively high fibre, low fat diet. During the first phase ten subjects consumed a total of 15 grams of pectin per day in four aliquots, while the other ten consumed a total of 15 grams of placebo (starch) per day in four aliquots.
(§3) During the second phase, the first group consumed a total of 7.5 grams of calcium acetate per day in four aliquots and the second group consumed a total of 15 grams of pectin per day in four aliquots. The calcium acetate was administered in capsules which were coated with a protective coating comprising a resin known commercially as shellac. This protective coating is resistant to digestion and solution in the stomach and small intestines, is but not resistant to the enzymes of the organisms usually found in the colon, so that the calcium acetate was thus released in the colon.
(§4) Blood samples where taken from the subjects after each phase and a large number of variables where tested.

[2] = Pectin / calcium acetate supplementation in human males: body weight and BMI; assay type: in vivo
[3] = test system: blood lipids; details: for % Inhibition / [Hydroperoxide]: in vitro; for [Hydroperoxide]: n = 5
[4] = Supplementation in human males: metabolic variables; details: for ACETATE: acetate level in blood sample; for FFA: free fatty acids; for IR: insulin resistance; for TP: total protein
Procedure: as §1, §2, §3, §4

[5] = Pectin / calcium acetate supplementation in human males: body weight and BMI; assay type: in vivo; remark: listed apart in the source
From the text: The acetate supplement (phase 2), however, caused a decrease (from 88.16±12.35 kg to 83.09±10.80 kg) in body weight. Although this decrease may not be of statistical significance, it can be clinically significant in the cases of those subjects who lost weight.

[6] = test system: fibrin clot; assay: Supplementation in human males: haemostatic variables and characteristics of fibrin networks developed in plasma; assay type: in vivo; details: for CLOT (FIBRIN): clot fibrin content; for LYSIS TIME (t 50%) / Permeability: clot; for COMPACTION: fibrin clot; for MPC: macromolecular protein complex; for μ,: mass length ratio from turbidity; for FIBRINOGEN: plasma
Procedure: as §1, §2, §3, §4

[7] = target: fibrin (Homo sapiens, UniProt P02671+P02675+P02679); details: progressive increase in acetate, FIG. 2
fibrin, sequence (P02671 36-629 limits assumed): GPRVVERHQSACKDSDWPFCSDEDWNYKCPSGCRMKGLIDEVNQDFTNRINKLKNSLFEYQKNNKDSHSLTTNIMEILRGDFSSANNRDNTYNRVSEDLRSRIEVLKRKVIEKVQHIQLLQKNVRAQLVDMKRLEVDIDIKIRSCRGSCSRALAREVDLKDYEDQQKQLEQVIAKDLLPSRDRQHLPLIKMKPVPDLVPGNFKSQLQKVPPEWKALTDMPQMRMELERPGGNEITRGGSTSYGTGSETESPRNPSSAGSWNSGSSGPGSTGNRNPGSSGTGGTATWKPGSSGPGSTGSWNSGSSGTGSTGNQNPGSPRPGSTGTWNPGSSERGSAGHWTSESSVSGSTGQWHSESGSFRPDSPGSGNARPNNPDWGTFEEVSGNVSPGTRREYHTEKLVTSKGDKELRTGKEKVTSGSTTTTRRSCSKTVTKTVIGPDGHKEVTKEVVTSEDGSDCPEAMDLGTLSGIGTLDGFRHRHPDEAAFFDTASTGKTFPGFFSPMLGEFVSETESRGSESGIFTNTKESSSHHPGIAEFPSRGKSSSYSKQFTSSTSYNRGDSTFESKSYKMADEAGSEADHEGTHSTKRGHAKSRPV
fibrin, sequence (P02675 45-491 limits assumed): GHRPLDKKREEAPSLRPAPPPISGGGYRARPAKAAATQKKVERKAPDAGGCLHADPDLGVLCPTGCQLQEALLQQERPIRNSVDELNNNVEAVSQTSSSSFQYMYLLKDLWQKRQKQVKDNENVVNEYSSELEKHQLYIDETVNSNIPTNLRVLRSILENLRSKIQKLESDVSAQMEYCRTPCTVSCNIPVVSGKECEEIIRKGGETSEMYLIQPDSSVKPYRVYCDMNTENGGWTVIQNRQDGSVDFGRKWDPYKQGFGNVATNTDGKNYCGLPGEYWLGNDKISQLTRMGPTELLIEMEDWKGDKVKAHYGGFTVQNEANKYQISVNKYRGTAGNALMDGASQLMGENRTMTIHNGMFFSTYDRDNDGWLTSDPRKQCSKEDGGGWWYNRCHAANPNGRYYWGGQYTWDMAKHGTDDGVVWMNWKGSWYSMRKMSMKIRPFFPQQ
fibrin, sequence (P02679 27-437 isoform P02679-2 limits assumed): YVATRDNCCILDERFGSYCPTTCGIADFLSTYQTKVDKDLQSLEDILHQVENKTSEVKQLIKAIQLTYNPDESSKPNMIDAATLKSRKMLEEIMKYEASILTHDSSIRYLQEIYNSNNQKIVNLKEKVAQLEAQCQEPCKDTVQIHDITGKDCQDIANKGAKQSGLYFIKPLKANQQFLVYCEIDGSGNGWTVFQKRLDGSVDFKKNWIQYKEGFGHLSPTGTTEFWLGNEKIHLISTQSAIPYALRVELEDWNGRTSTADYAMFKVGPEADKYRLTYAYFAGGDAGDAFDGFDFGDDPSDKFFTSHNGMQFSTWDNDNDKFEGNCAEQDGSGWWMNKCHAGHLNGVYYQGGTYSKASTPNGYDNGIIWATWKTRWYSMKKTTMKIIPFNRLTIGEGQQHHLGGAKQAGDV
From the text: FIG. 2 is a urbidity curve of fibrin formation in the presence of different acetate concentrations; and
Referring to FIG. 2, the kinetics of network growth were subsequently investigated by continuously recording changes in turbidity at 608 nm, during network development under identical experimental conditions.

[8] = target: fibrin clot (Homo sapiens, UniProt P02671+P02675+P02679); details: in vitro, n = 5
fibrin clot (Homo sapiens, UniProt P02671+P02675+P02679), sequence (P02671 36-629 limits assumed): as the sequence (P02671 36-629 limits assumed) above
fibrin clot (Homo sapiens, UniProt P02671+P02675+P02679), sequence (P02675 45-491 limits assumed): as the sequence (P02675 45-491 limits assumed) above
fibrin clot (Homo sapiens, UniProt P02671+P02675+P02679), sequence (P02679 27-437 isoform P02679-2 limits assumed): as the sequence (P02679 27-437 isoform P02679-2 limits assumed) above

[9] = test system: blood lipids; assay: Supplementation in human males: lipid variables; assay type: in vivo; details: for TC: total cholesterol; for TG: triglycerides
Procedure: as §1, §2, §3, §4

[10] = phase 2, end of supplementation (pectin 15 g/day; calcium acetate 7.5 g/day)

SMILES: CC(=O)[O-].CC(=O)[O-].[Ca+2] [ACETATE, calcium acetate]
- HAEMATOCRIT ([1]; phase 2, baseline): 48.55%
- HAEMOGLOBIN ([1]; phase 2, baseline): 11.12 mmol/L
- HAEMATOCRIT [1, 10]: 46.83 ± %
- HAEMOGLOBIN [1, 10]: 10.48 mmol/L
- VISCOSITY ([1]; phase 2, baseline): 1.92 cP
- VISCOSITY [1, 10]: 1.61 ± cP
- BODY WEIGHT ([2]; phase 2, baseline): 88.16 ± 12.35 kg
- BODY WEIGHT ([2]; phase 2, baseline, listed as PLACEBO): 88.16 kg
- decrease in body weight ([2]; phase 2, clinically significant but statistically insignificant): 5.07 kg
- BODY WEIGHT [2, 10]: 83.09 ± 10.80 kg
- BODY WEIGHT ([2]; phase 2, end of supplementation (pectin 15 g/day; calcium acetate 7.5 g/day), listed as PLACEBO): 83.04 kg
- % Inhibition ([3]; 0.05 mmol/L (50 μM) acetate): 46.97%
- [Hydroperoxide] ([3]; 0.05 mmol/L acetate): 4.46 ± 0.15 × 10^−6 M
- % Inhibition ([3]; 0.10 mmol/L (100 μM) acetate): 56.01%
- [Hydroperoxide] ([3]; 0.10 mmol/L acetate): 3.70 ± 0.22 × 10^−6 M
- % Inhibition ([3]; 0.20 mmol/L (200 μM) acetate): 67.11%
- [Hydroperoxide] ([3]; 0.20 mmol/L acetate): 3.04 ± 0.23 × 10^−6 M
- % Inhibition ([3]; 0.30 mmol/L (300 μM) acetate): 73.12%
- [Hydroperoxide] ([3]; 0.30 mmol/L acetate): 2.26 ± 0.16 × 10^−6 M
- minium inhibition: decrease of peroxidation in vitro from linear regression analysis ([3]; r=0.98, m=−0.836): 56.12%
- ACETATE ([4]; phase 2, baseline): 37.63 µmol/L
- ACETATE [4, 10]: 54.31 ± μmol/l
- FFA ([4]; phase 2, baseline): 0.59 mmol/L
- FFA [4, 10]: 0.45 ± mmol/l
- IR ([4]; phase 2, baseline): 3.22
- IR [4, 10]: 2.93
- ALBUMIN ([4]; phase 2, baseline): 43.09 g/L
- GLUCOSE ([4]; phase 2, baseline): 3.58 mmol/L
- INSULIN ([4]; phase 2, baseline): 8.96 μU/ml
- PPA/ALB ([4]; phase 2, baseline): 13.69 × 10^1
- ALBUMIN [4, 10]: 45.50 g/L
- GLUCOSE [4, 10]: 3.78 mmol/L
- INSULIN [4, 10]: 7.61 μU/ml
- PPA/ALB [4, 10]: 9.89 ± × 10^1
- TP ([4]; phase 2, baseline): 71.69 g/L
- TP [4, 10]: 71.52 g/L
- BMI ([5]; phase 2, baseline): 26.90 kg/m^2
- BMI [5, 10]: 25.65 kg/m^2
- CLOT (FIBRIN) ([6]; phase 2, baseline): 2.00 g/L
- CLOT (FIBRIN) [6, 10]: 1.62 ± g/l
- LYSIS TIME (t 50%) ([6]; phase 2, baseline): 251.9
- Permeability ([6]; phase 2, baseline): 212.52 × 10^11 cm^3
- LYSIS TIME (t 50%) [6, 10]: 130.3 ±
- Permeability [6, 10]: 306.81 ± × 10^11 cm^3
- COMPACTION ([6]; phase 2, baseline): 22.47%
- COMPACTION [6, 10]: 32.21 ± %
- MPC ([6]; phase 2, baseline): 0.1146 g/L
- MPC [6, 10]: 0.0852 ± g/l
- μ, ([6]; phase 2, baseline): 22.93 Dal/cm × 10^12
- μ, [6, 10]: 34.28 ± Dal/cm × 10^12
- decrease in the total plasma fibrinogen concentration ([6]; phase 2, acetate supplementation, not significant): 11.2%
- FIBRINOGEN ([6]; phase 2, baseline): 4.10 g/L
- FIBRINOGEN [6, 10]: 3.64 g/L
- kinetics of network growth (turbidity at 608 nm) [7]: enhanced the entire kinetics
- Clot [FIBRlN] ([8]; 75 μmol/L acetate): 1.36 ± 0.03 g/L
- Permeability ([8]; 75 μmol/L acetate): 110.4 ± 5.17 × 10^11 cm^2
- μT ([8]; 75 μmol/L acetate): 17.44 ± 0.20 daltons/cm × 10^12
- Clot [FIBRlN] ([8]; 100 μmol/L acetate): 1.37 ± 0.07 g/L
- Permeability ([8]; 100 μmol/L acetate): 118.0 ± 6.03 × 10^11 cm^2
- μT ([8]; 100 μmol/L acetate): 17.95 ± 0.22 daltons/cm × 10^12
- Clot [FIBRlN] ([8]; 150 μmol/L acetate): 1.39 ± 0.05 g/L
- Permeability ([8]; 150 μmol/L acetate): 134.0 ± 5.02 × 10^11 cm^2
- μT ([8]; 150 μmol/L acetate): 19.51 ± 0.17 daltons/cm × 10^12
- % HDL-C ([9]; phase 2, baseline): 17.04%
- ApoA ([9]; phase 2, baseline): 1.50 mmol/L
- ApoB ([9]; phase 2, baseline): 1.47 mmol/L
- H2O3 ([9]; phase 2, baseline): 1.27 µM
- HDL-C ([9]; phase 2, baseline): 1.11 mmol/L
- LDL-C ([9]; phase 2, baseline): 4.97 ± mmol/l
- TBARM ([9]; phase 2, baseline): 1.47 µM
- % HDL-C [9, 10]: 20.32 ± %
- ApoA [9, 10]: 1.40 ± mmol/l
- ApoB [9, 10]: 1.34 ± mmol/l
- H2O3 [9, 10]: 0.81 ± μM
- HDL-C [9, 10]: 1.18 mmol/L
- LDL-C [9, 10]: 4.20 ± mmol/l
- TBARM [9, 10]: 1.07 µM
- TC ([9]; phase 2, baseline): 6.55 mmol/L
- TC [9, 10]: 5.81 ± mmol/l
- TG ([9]; phase 2, baseline): 0.65 mmol/L
- TG [9, 10]: 1.33 ± mmol/l
